Tests used:
[1] = test system: Mitochondria from a human liver; assay: Chemiluminescent probe of superoxide and hydroxyl radicals in isolated mitochondria; assay type: biochemical
Description: Mitrochondria from a human liver were freshly isolated and maintained in a culture environment so that normal respiration and ATP production occurred. Special chemical probes, e.g. luminol-carnitine derivatives, were pipetted into the mitochondria culture media. Uptake of the probes occurred in the mitrochondrial inner membrane where oxygen metabolism and toxic oxygen byproducts are produced. The probes emitted chemiluminescent light in proportion to superoxide (O2^-.) and hydroxyl radicals (.OH). This light was measured by a photomultiplier, and the results were quantified and recorded.

[2] = test system: microvascular lipid hydroperoxides; assay: Pharmacokinetic time-course (double-blind) study of single oral doses of NDGA, microvascular lipid hydroperoxides; assay type: in vivo, human
Procedure: Placebos were given to two (2) other volunteers. Using the above referenced non-invasive technique called reflective, near-infrared spectroscopy, changes in the microvascular concentrations of lipid hydroperoxides were monitored during 8 hour test periods. […] Subjects received single doses of NDGA and placebos orally, respectively.

[3] = test system: Uppsala mice; assay: Uppsala mice fed lab chow containing 0.5 weight% NDGA, observation of aging and skin wrinkling; assay type: in vivo
Description: In one aspect of practice of techniques of this invention, the compounds of formula (1) are useful in retarding the aging phenomena of skin wrinkling. In this example, twenty four (24) Uppsala mice were fed standard lab chow (provided by Anticimax of Sodertalje, Sweden) containing 0.5 weight% NDGA ad libitum from the twelfth to thirty-sixth month of their lifespan.
This increased wrinkling is indicative of collagen and elastin hardening and cross-linking via the conversion of imide to amide bonds as discussed above.

[4] = test system: Glial cells from a human brain; assay: Cellular ATP production in cultivated glial cells (bioluminescence); assay type: cell-based; conditions: NDGA 0.5% w/v in culture
Procedure: Glial cells from a human brain were cultivated by monolayering on Petri dishes. Cellular ATP production was measured using bioluminescent methods (luciferin, luciferase and photomultiplier detection).

[5] = test system: lipid hydroperoxides in the skin; assay type: in vivo, human
Description: FIG. 3 is a graph showing the results of a double blind study set forth in Example 6, wherein a composition containing 2% NDGA by weight was applied topically to the skin of the foreheads of human volunters; and
Turning to FIG. 3, the results of a double-blind time study using a composition containing 2% by weight NDGA can be seen. This composition was the same as the composition set forth in Example 3 with the exception that the percentage of water was reduced to 86.5%. Starting at time zero, 10 milliliters of this cream was vigorously applied topically onto the skin of the forehead of a volunteer. Measurements were taken at different intervals using non-invasive, reflective, near-infrared spectroscopy. The methods of non-invasive, reflective, near infrared spectroscopy used in this example are set forth in detail in R. Lippman, "Rapid in vivo Quantification and Comparision of Hydroperoxides and Oxidized Collagen in Aging Mice, Rabbits and Man", Experimental Gerontology, Vol. 20, pp. 1-5, 1985, which is incorporated herein by this reference.

[6] = isolated human liver mitochondria

CC(Cc1ccc(O)c(O)c1)C(C)Cc1ccc(O)c(O)c1 (stereo not drawn) [NDGA, 1,4-bis(3,4-dihydroxyphenyl)-2,3-dimethylbutane]
lifespan of the human mitochondria [1, 6]: Increased lifespan of the human mitochondria
toxic oxygen byproducts [1, 6]: significantly reduced toxic oxygen byproducts
steady state light (chemiluminescence of superoxide and hydroxyl radicals) ([1]; luminol-carnitine derivative probes): significantly reduced the steady state light
reduction of levels of microvascular lipid hydroperoxides ([2]; oral, single doses 50, 75, 100 and 200 mg, during the 4 to 8 hour study periods): at least 15%
neutralization of toxic byproducts of oxygen metabolism, i.e. lipid hydroperoxides (conclusion) ([2]; when taken at regular intervals of at least 6 hours, 3 times daily): effective neutralizer of toxic byproducts of oxygen metabolism
skin wrinkling, control mice versus NDGA fed mice ([3]; 0.5 weight% NDGA in chow): greater skin wrinkling in control mice versus NDGA fed mice
visual appearance (youthful and healthy) versus control mice ([3]; 0.5 weight% NDGA in chow from twelfth month, at 26 months of age): visually more youthful and healthy
NDGA fed mice still living ([3]; 24 mice at start, 0.5 weight% NDGA in chow, one control mouse of 6 remaining): four
steady state ATP production [4]: increase in steady state ATP production was observed
facial skin and skin unsaturated lipids, damage ([5]; 2% by weight NDGA cream topically on forehead): facial skin and skin unsaturated lipids are preserved, and damage is prevented
return to normal level of lipid hydroperoxides ([5]; 2% by weight NDGA cream topically, after approximately 4 hours): 190 micromole/cm^2
lipid hydroperoxides in skin layers and microvascularization, level decreased to ([5]; 2% by weight NDGA cream, 10 milliliters topically on forehead, after about one hour, from about 190): ~151 micromole/cm^2 skin
